{"source": "PubChem BioAssay (NCI)", "assay_in_all_cases": "inhibition of tumour cell growth, NCI panel, 48 h", "key": {"T-47D breast": {"test_system": "T-47D breast"}, "EKVX NSCLC": {"test_system": "EKVX NSCLC"}, "DU-145 prostate": {"test_system": "DU-145 prostate"}, "NCI/ADR-RES ovarian": {"test_system": "NCI/ADR-RES ovarian"}, "PC-3 prostate": {"test_system": "PC-3 prostate"}, "BT-549 breast": {"test_system": "BT-549 breast"}, "HOP-92 NSCLC": {"test_system": "HOP-92 NSCLC"}, "DLD-1 colon": {"test_system": "DLD-1 colon"}, "DMS 273 small cell lung": {"test_system": "DMS 273 small cell lung"}, "M19-MEL melanoma": {"test_system": "M19-MEL melanoma"}, "KM20L2 colon": {"test_system": "KM20L2 colon"}, "HOP-62 NSCLC": {"test_system": "HOP-62 NSCLC"}, "RXF-631 renal": {"test_system": "RXF-631 renal"}}, "note": "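A five-concentration, 48-hour dose response in 96-well plates underlies each endpoint, interpolated linearly between surrounding concentrations. Here, GI50 denotes the concentration required for 50% inhibition of growth. TGI marks complete inhibition of growth.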", "data": [{"smiles": "Nc1nc(Nc2ccc(OCc3cccc(F)c3)cc2)c2c(n1)[nH]c1ccc(O)cc12", "values": [{"measurement": "GI50", "setting": "T-47D breast", "result": 1.79, "unit": "µM"}, {"measurement": "TGI", "setting": "T-47D breast", "result": 4.5, "unit": "µM"}, {"measurement": "GI50", "setting": "EKVX NSCLC", "result": 8.86, "unit": "µM"}, {"measurement": "TGI", "setting": "EKVX NSCLC", "result": 29.4, "unit": "µM"}, {"measurement": "GI50", "setting": "DU-145 prostate", "result": 4.22, "unit": "µM"}, {"measurement": "TGI", "setting": "DU-145 prostate", "result": 15.6, "unit": "µM"}, {"measurement": "GI50", "setting": "NCI/ADR-RES ovarian", "result": 9.46, "unit": "µM"}, {"measurement": "TGI", "setting": "NCI/ADR-RES ovarian", "result": 32, "unit": "µM"}, {"measurement": "GI50", "setting": "PC-3 prostate", "result": 3.71, "unit": "µM"}, {"measurement": "TGI", "setting": "PC-3 prostate", "result": 14.7, "unit": "µM"}, {"measurement": "GI50", "setting": "BT-549 breast", "result": 1.88, "unit": "µM"}, {"measurement": "TGI", "setting": "BT-549 breast", "result": 4.01, "unit": "µM"}, {"measurement": "GI50", "setting": "HOP-92 NSCLC", "result": 2.37, "unit": "µM"}, {"measurement": "TGI", "setting": "HOP-92 NSCLC", "result": 7.98, "unit": "µM"}]}, {"smiles": "O=c1c2cc3c(=O)n(CCc4ccccc4CO)c(=O)c3cc2c(=O)n1CCc1ccccc1CO", "values": [{"measurement": "TGI", "setting": "DLD-1 colon", "result": "> 100", "unit": "µM"}, {"measurement": "TGI", "setting": "DMS 273 small cell lung", "result": "> 100", "unit": "µM"}, {"measurement": "TGI", "setting": "M19-MEL melanoma", "result": "> 100", "unit": "µM"}]}, {"smiles": "c1ccc([P+](Cc2csnn2)(c2ccccc2)c2ccccc2)cc1", "values": [{"measurement": "TGI", "setting": "DLD-1 colon", "result": "> 100", "unit": "µM"}, {"measurement": "TGI", "setting": "DMS 273 small cell lung", "result": "> 100", "unit": "µM"}, {"measurement": "TGI", "setting": "KM20L2 colon", "result": "> 100", "unit": "µM"}, {"measurement": "TGI", "setting": "EKVX NSCLC", "result": "> 100", "unit": "µM"}, {"measurement": "TGI", "setting": "M19-MEL melanoma", "result": "> 100", "unit": "µM"}, {"measurement": "TGI", "setting": "HOP-62 NSCLC", "result": "> 100", "unit": "µM"}, {"measurement": "TGI", "setting": "HOP-92 NSCLC", "result": "> 100", "unit": "µM"}]}, {"smiles": "CCOC(=O)c1csc(NC(=O)CCCC#N)n1", "values": [{"measurement": "TGI", "setting": "T-47D breast", "result": "> 100", "unit": "µM"}, {"measurement": "TGI", "setting": "DU-145 prostate", "result": "> 100", "unit": "µM"}, {"measurement": "TGI", "setting": "NCI/ADR-RES ovarian", "result": "> 100", "unit": "µM"}, {"measurement": "TGI", "setting": "PC-3 prostate", "result": "> 100", "unit": "µM"}, {"measurement": "TGI", "setting": "HOP-62 NSCLC", "result": "> 100", "unit": "µM"}, {"measurement": "TGI", "setting": "HOP-92 NSCLC", "result": "> 100", "unit": "µM"}]}, {"smiles": "CCOC(=O)C1=C(C)NC(=O)N([N+](=O)[O-])C1c1ccccc1C(F)(F)F", "note": "(stereo unspecified)", "values": [{"measurement": "TGI", "setting": "T-47D breast", "result": "> 100", "unit": "µM"}, {"measurement": "TGI", "setting": "DU-145 prostate", "result": "> 100", "unit": "µM"}, {"measurement": "TGI", "setting": "NCI/ADR-RES ovarian", "result": "> 100", "unit": "µM"}, {"measurement": "TGI", "setting": "PC-3 prostate", "result": "> 100", "unit": "µM"}, {"measurement": "TGI", "setting": "HOP-62 NSCLC", "result": "> 100", "unit": "µM"}, {"measurement": "TGI", "setting": "BT-549 breast", "result": "> 100", "unit": "µM"}, {"measurement": "TGI", "setting": "HOP-92 NSCLC", "result": "> 100", "unit": "µM"}]}, {"smiles": "Cc1cc(C)nc(NS(=O)(=O)c2ccc(Nc3c4ccccc4nc4c(C(=O)NCCO)cccc34)cc2)n1", "values": [{"measurement": "TGI", "setting": "T-47D breast", "result": "> 100", "unit": "µM"}, {"measurement": "TGI", "setting": "EKVX NSCLC", "result": "> 100", "unit": "µM"}, {"measurement": "TGI", "setting": "DU-145 prostate", "result": "> 100", "unit": "µM"}, {"measurement": "TGI", "setting": "NCI/ADR-RES ovarian", "result": "> 100", "unit": "µM"}, {"measurement": "TGI", "setting": "PC-3 prostate", "result": "> 100", "unit": "µM"}, {"measurement": "TGI", "setting": "HOP-62 NSCLC", "result": 71.3, "unit": "µM"}, {"measurement": "TGI", "setting": "BT-549 breast", "result": 34, "unit": "µM"}, {"measurement": "TGI", "setting": "HOP-92 NSCLC", "result": "> 100", "unit": "µM"}]}, {"smiles": "COc1ccc(CN2C(=O)C(=O)N(C)C2=O)c2ccccc12", "values": [{"measurement": "TGI", "setting": "T-47D breast", "result": "> 10", "unit": "µM"}, {"measurement": "TGI", "setting": "EKVX NSCLC", "result": "> 10", "unit": "µM"}, {"measurement": "TGI", "setting": "DU-145 prostate", "result": "> 10", "unit": "µM"}, {"measurement": "TGI", "setting": "NCI/ADR-RES ovarian", "result": "> 10", "unit": "µM"}, {"measurement": "TGI", "setting": "PC-3 prostate", "result": "> 10", "unit": "µM"}, {"measurement": "TGI", "setting": "HOP-62 NSCLC", "result": "> 10", "unit": "µM"}]}, {"smiles": "O=C(NN1C(=O)CSC1c1ccc(Cl)c(Cl)c1)c1ccncc1", "note": "(stereo unspecified)", "values": [{"measurement": "TGI", "setting": "DLD-1 colon", "result": "> 100", "unit": "µM"}, {"measurement": "TGI", "setting": "DMS 273 small cell lung", "result": "> 100", "unit": "µM"}, {"measurement": "TGI", "setting": "KM20L2 colon", "result": "> 100", "unit": "µM"}, {"measurement": "TGI", "setting": "EKVX NSCLC", "result": "> 100", "unit": "µM"}, {"measurement": "TGI", "setting": "RXF-631 renal", "result": "> 100", "unit": "µM"}]}]}
